Assay results reported in patent US7713994B2 (Wyeth LLC, priority 2005, dated 2010).

biological target: T1, cyclin D1/cdk 4 enzyme (Homo sapiens, UniProt P11802); test: CDK4 ELISA kinase assay (phospho-Rb ser 795 detection); type: biochemical; conditions: In Vitro Enzyme Assay, cyclin D1/cdk 4, read-out: CDK4 IC50
T1 construct: made in house; host or cells: Sf9 insect cells, recombinant baculovirus
Method: • 1. High-binding ELISA microtiter plates (Costar) were coated with 40 μl of the kinase substrate (GST fusion of C-terminal fragment of the retinoblastoma susceptibility gene product) diluted to 10 μg/ml in tris-buffered saline (TBS), overnight at 4° C. • 2. Non-specific binding sites were blocked for 1 hour at 4° C. with Superblock in TBS (Pierce), and the plates rinsed with water. • 3. For the screen, 1.5 μl of test compound (200 μg/ml stock in 20% DMSO/20 mM HEPES, pH 7.5) was added to each well. Final dose of the test compound in the assay was 10 ug/ml. […] The kinase reaction (30 μl) was dispensed into each well. Reactions contained 200 μM ATP, 0.5 mg/ml bovine serum albumin (BSA; Sigma), and 0.5 μl partially purified cyclin D1/cdk 4 enzyme*. The enzyme complex is expressed in insect cells (Sf9) infected with recombinant baculovirus and partially purified using ammonium sulfate fractionation. Reaction volumes were adjusted to 30 μl with kinase assay buffer (50 mM HEPES, pH 7.5, 10 mM MgCl2, 5% glycerol, 10 mM 2-mercaptoethanol). • *: For CDK2 assay, 1.0 μl cyclin E/CDK2 enzyme (diluted 1:1000 in kinase assay buffer) was used. The enzyme is isolated from insect cells (Sf9) infected with recombinant baculovirus and partially purified using ammonium sulfate fractionation. For CDK1 assay, 0.08 μl cyclin B/CDK1 enzyme [New England BioLabs; the enzyme is isolated from insect cells (Sf9) infected with recombinant baculovirus carrying human cdc 2 and human cyclin B] was used.
[…] • 5. Plates were incubated at 30° C. for 1 hour. • 6. The reaction mixture was removed by aspiration and replaced with 250 μl TBS containing 0.1% Tween-20 and 5% nonfat dry milk (blocking buffer). The plates were incubated at 4° C. for 1 hour. • 7. The blocking buffer was removed and replaced with 50 μl of the primary antibody [anti-phospho-Rb ser 795 (New England BioLabs) diluted 1:1000 in blocking buffer]. Incubation was at 4° C. for 16-20 hours. • 8. The wells were rinsed 3 times with 250 μl of TBS containing 0.1% Tween-20 followed by the addition of 50 μl of secondary antibody [anti-rabbit IgG conjugated to horseradish peroxidase (Amersham Life Science) diluted 1:1000 in blocking buffer]. • 9. After a 1 hour incubation at room temperature, the wells were rinsed 3 times with 250 μl of TBS/0.1% Tween 20. • 10. TMB (3,3′,5,5′-tetramethylbenzidine dihydrochloride) substrate solution (100 μl; Pierce) was added to each well and the color development reaction allowed to proceed 5-10 minutes at room temperature with shaking. The reaction was stopped by the addition of 2N sulfuric acid (100 μl) and the absorbance values read at 450 nm in a microplate reader (Molecular Devices). Analysis of Results: • 1. The percentage of the absorbance value in wells containing the test compound relative to control wells (no test agent) was determined. • 2. IC50 values of selected compounds were determined from inhibition curves, after subtracting background values (no substrate).

T1 sequence (P11802 whole entry, species assumed): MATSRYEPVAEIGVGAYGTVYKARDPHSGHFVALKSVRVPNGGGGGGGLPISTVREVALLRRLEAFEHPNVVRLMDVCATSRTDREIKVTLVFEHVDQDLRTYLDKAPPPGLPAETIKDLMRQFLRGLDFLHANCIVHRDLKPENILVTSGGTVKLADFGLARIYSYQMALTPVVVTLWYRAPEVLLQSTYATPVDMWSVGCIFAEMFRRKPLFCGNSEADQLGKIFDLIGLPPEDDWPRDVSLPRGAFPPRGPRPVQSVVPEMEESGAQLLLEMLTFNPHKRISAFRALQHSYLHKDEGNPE
T1 sequence (P24385 whole entry partner, species assumed): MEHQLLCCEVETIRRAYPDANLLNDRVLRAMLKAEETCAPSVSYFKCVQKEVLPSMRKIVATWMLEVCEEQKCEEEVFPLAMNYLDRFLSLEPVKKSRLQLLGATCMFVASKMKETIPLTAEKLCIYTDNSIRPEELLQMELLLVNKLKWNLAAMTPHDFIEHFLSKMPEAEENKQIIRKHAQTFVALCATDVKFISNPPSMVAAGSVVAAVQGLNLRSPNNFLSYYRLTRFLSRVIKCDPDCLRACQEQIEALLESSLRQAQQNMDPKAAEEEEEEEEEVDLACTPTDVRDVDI

Point of comparison: `O=C1NC(=O)c2ccccc2C1=CNCc1ccc(S(=O)(=O)NCc2cccnc2)cc1` [Example 607, 4-{[(1,3-Dioxo-2,3-dihydro-1H-isoquinolin-4-ylidenemethyl)-amino]-methyl}-N-pyridin-3-ylmethyl-benzenesulfonamide], IC50 45.5 µM. Against it:
- CN1CCN(c2ccc(NC=C3C(=O)NC(=O)c4ccc(C=CCCCCO)cc43)cc2)CC1 [Example 798, 6-(6-Hydroxy-hex-1-enyl)-4-{[4-(4-methyl-piperazin-1-yl)-phenylamino]-methylene}-4H-isoquinoline-1,3-dione] — 18-fold lower, 2.5 µM
- N#CCc1ccc(NC=C2C(=O)NC(=O)c3ccc(-c4cccc(C(=O)O)c4)cc32)cc1 [Example 708, 3-{4-[(4-Cyanomethyl-phenylamino)-methylene]-1,3-dioxo-1,2,3,4-tetrahydro-isoquinolin-6-yl}-benzoic acid] — 4.5-fold lower, 10 µM
- CC(C)c1ccc(-c2ccc3c(c2)C(=CNCc2ccc(O)c(O)c2)C(=O)NC3=O)cc1 [Example 790, 4-[(3,4-Dihydroxy-benzylamino)-methylene]-6-(4-isopropyl-phenyl)-4H-isoquinoline-1,3-dione] — 31-fold lower, 1.45 µM
- O=C1NC(=O)c2ccccc2C1=CNc1ccc(CN2CCCC(O)C2)cc1 (stereo not shown) [Example 615, 4-{[4-(3-Hydroxy-piperidin-1-ylmethyl)-phenylamino]-methylene}-4H-isoquinoline-1,3-dione] — 1.8-fold lower, 25.7 µM
- NS(=O)(=O)c1ccc(CNC=C2C(=O)NC(=O)c3ccc(-c4cccc(C=CC(=O)O)c4)cc32)cc1 [Example 760, 3-(3-{1,3-Dioxo-4-[(4-sulfamoyl-benzylamino)-methylene]-1,2,3,4-tetrahydro-isoquinolin-6-yl}-phenyl)-acrylic acid] — 21-fold lower, 2.2 µM
- O=C1NC(=O)c2ccc(C=CCc3ccccc3)cc2C1=CNc1ccc(CN2CCCC2)cc1 [Example 622, 6-(3-Phenyl-propenyl)-4-[(4-pyrrolidin-1-ylmethyl-phenylamino)-methylene]-4H-isoquinoline-1,3-dione] — within 1.5-fold, 37.2 µM
- NCc1cccc(CNC=C2C(=O)NC(=O)c3ccccc32)c1 [Example 578, 4-[(3-Aminomethyl-benzylamino)-methylene]-4H-isoquinoline-1,3-dione] — 1.9-fold lower, 23.7 µM
- Cc1nc(NS(=O)(=O)c2ccc(NC=C3C(=O)NC(=O)c4ccccc43)cc2)oc1C [Example 553, N-(4,5-Dimethyl-oxazol-2-yl)-4-[(1,3-dioxo-2,3-dihydro-1H-isoquinolin-4-ylidenemethyl)-amino]-benzenesulfonamide] — 1.9-fold lower, 23.7 µM
- CN1CCN(c2ccc(NC=C3C(=O)NC(=O)c4ccc(-c5ccc(N(C)C)cc5)cc43)cc2)CC1 [Example 807, 6-(4-Dimethylamino-phenyl)-4-{[4-(4-methyl-piperazin-1-yl)-phenylamino]-methylene}-4H-isoquinoline-1,3-dione] — 3.1-fold lower, 14.5 µM
- N#CCc1ccc(NC=C2C(=O)NC(=O)c3ccc(-c4ccc5ccccc5c4)cc32)cc1 [Example 624, {4-[(6-Naphthalen-2-yl-1,3-dioxo-2,3-dihydro-1H-isoquinolin-4-ylidenemethyl)-amino]-phenyl}-acetonitrile] — 3.5-fold lower, 13 µM
- CCN(CC)CCN1CCN(c2ccc(NC=C3C(=O)NC(=O)c4ccccc43)cc2)CC1 [Example 599, 4-({4-[4-(2-Diethylamino-ethyl)-piperazin-1-yl]-phenylamino}-methylene)-4H-isoquinoline-1,3-dione] — within 1.5-fold, 39.7 µM
- CN1CCN(c2ccc(NC=C3C(=O)NC(=O)c4ccc(C=C5CCCC5)cc43)cc2)CC1 [Example 828, 6-Cyclopentylidenemethyl-4-{[4-(4-methyl-piperazin-1-yl)-phenylamino]-methylene}-4H-isoquinoline-1,3-dione] — 10-fold lower, 4.4 µM
- COc1ccc(-c2ccc3c(c2)C(=CNCc2ccc(O)c(O)c2)C(=O)NC3=O)c(OC)c1 [Example 814, 4-[(3,4-Dihydroxy-benzylamino)-methylene]-6-(2,4-dimethoxy-phenyl)-4H-isoquinoline-1,3-dione] — 17-fold lower, 2.75 µM
- CC(C)c1ccc(-c2ccc3c(c2)C(=CNc2ccc(CC#N)cc2)C(=O)NC3=O)cc1 [Example 722, (4-{[6-(4-Isopropyl-phenyl)-1,3-dioxo-2,3-dihydro-1H-isoquinolin-4-ylidenemethyl]-amino}-phenyl)-acetonitrile] — 1.8-fold lower, 25.3 µM
- CN1CCN(c2ccc(NC=C3C(=O)NC(=O)c4ccc(C=Cc5ccc(Cl)cc5)cc43)cc2)CC1 [Example 726, 6-[2-(4-Chloro-phenyl)-vinyl]-4-{[4-(4-methyl-piperazin-1-yl)-phenylamino]-methylene}-4H-isoquinoline-1,3-dione] — 2.7-fold lower, 16.9 µM
- CN1CCN(c2ccc(NC=C3C(=O)NC(=O)c4ccc(C=Cc5ccc(CC#N)cc5)cc43)cc2)CC1 [Example 803, {4-[2-(4-{[4-(4-Methyl-piperazin-1-yl)-phenylamino]-methylene}-1,3-dioxo-1,2,3,4-tetrahydro-isoquinolin-6-yl)-vinyl]-phenyl}-acetonitrile] — 9.2-fold lower, 4.97 µM
- O=C1NC(=O)c2ccccc2C1=CNCc1cccc(NS(=O)(=O)c2cccs2)c1 [Example 579, Thiophene-2-sulfonic acid (3-{[(1,3-dioxo-2,3-dihydro-1H-isoquinolin-4-ylidenemethyl)-amino]-methyl}-phenyl)-amide] — 2.2-fold lower, 20.4 µM
- O=C1NC(=O)c2ccc(-c3ccc(-c4ccccc4)cc3)cc2C1=CNCc1ccc(O)c(O)c1 [Example 786, 6-Biphenyl-4-yl-4-[(3,4-dihydroxy-benzylamino)-methylene]-4H-isoquinoline-1,3-dione] — 4.7-fold lower, 9.74 µM
- COc1ccccc1-c1ccc2c(c1)C(=CNc1ccc(CC#N)cc1)C(=O)NC2=O [Example 703, (4-{[6-(2-Methoxy-phenyl)-1,3-dioxo-2,3-dihydro-1H-isoquinolin-4-ylidenemethyl]-amino}-phenyl)-acetonitrile] — 2.5-fold lower, 18.5 µM
- CC(=O)c1ccccc1-c1ccc2c(c1)C(=CNCc1ccc(S(N)(=O)=O)cc1)C(=O)NC2=O [Example 748, 4-({[6-(2-Acetyl-phenyl)-1,3-dioxo-2,3-dihydro-1H-isoquinolin-4-ylidenemethyl]-amino}-methyl)-benzenesulfonamide] — within 1.5-fold, 46.2 µM
- CN1CCN(c2ccc(NC=C3C(=O)NC(=O)c4ccc(C=Cc5ccccc5)cc43)cc2)CC1 [Example 677, 4-{[4-(4-Methyl-piperazin-1-yl)-phenylamino]-methylene}-6-styryl-4H-isoquinoline-1,3-dione] — 3.2-fold lower, 14.3 µM
- CN1CCN(c2ccc(NC=C3C(=O)NC(=O)c4ccc(C=CCCO)cc43)cc2)CC1 [Example 796, 6-(4-Hydroxy-but-1-enyl)-4-{[4-(4-methyl-piperazin-1-yl)-phenylamino]-methylene}-4H-isoquinoline-1,3-dione] — 20-fold lower, 2.27 µM
- CN1CCN(c2ccc(NC=C3C(=O)NC(=O)c4ccc(C=CCN5CC(=O)NC5=O)cc43)cc2)CC1 [Example 800, 6-[3-(2,4-Dioxo-imidazolidin-1-yl)-propenyl]-4-{[4-(4-methyl-piperazin-1-yl)-phenylamino]-methylene}-4H-isoquinoline-1,3-dione] — 9-fold lower, 5.04 µM
- NS(=O)(=O)c1ccc(CNC=C2C(=O)NC(=O)c3ccc(-c4cccc(C(=O)O)c4)cc32)cc1 [Example 742, 3-{1,3-Dioxo-4-[(4-sulfamoyl-benzylamino)-methylene]-1,2,3,4-tetrahydro-isoquinolin-6-yl}-benzoic acid] — 3.3-fold lower, 13.8 µM
